For assay [1], the target named is T1, Full length Human FAK (Flag-His-TEV-FAK1) (Homo sapiens, UniProt Q05397).
T1 construct: Full length Human FAK was expressed using baculovirus in Sf9 cells; made in house; host or cells: baculovirus in Sf9 cells
The experiment in a line: Biochemical assay for FAK activity, Assay 2: LANCE Ultra ULight peptide phosphorylation, 665 nm/615 nm ratio. To be noted: Flag-His-TEV-FAK1, 10 μM ATP, 30 min pre-incubation; for IC50: read-out: Assay 2 FAK H 31284A TRF PXC50 (converted).

The target in the next assay is T2, GST-tagged FAK (Homo sapiens, UniProt Q05397).
T2 construct: purchased Invitrogen PV3832
T2 sequence (Q05397 whole entry): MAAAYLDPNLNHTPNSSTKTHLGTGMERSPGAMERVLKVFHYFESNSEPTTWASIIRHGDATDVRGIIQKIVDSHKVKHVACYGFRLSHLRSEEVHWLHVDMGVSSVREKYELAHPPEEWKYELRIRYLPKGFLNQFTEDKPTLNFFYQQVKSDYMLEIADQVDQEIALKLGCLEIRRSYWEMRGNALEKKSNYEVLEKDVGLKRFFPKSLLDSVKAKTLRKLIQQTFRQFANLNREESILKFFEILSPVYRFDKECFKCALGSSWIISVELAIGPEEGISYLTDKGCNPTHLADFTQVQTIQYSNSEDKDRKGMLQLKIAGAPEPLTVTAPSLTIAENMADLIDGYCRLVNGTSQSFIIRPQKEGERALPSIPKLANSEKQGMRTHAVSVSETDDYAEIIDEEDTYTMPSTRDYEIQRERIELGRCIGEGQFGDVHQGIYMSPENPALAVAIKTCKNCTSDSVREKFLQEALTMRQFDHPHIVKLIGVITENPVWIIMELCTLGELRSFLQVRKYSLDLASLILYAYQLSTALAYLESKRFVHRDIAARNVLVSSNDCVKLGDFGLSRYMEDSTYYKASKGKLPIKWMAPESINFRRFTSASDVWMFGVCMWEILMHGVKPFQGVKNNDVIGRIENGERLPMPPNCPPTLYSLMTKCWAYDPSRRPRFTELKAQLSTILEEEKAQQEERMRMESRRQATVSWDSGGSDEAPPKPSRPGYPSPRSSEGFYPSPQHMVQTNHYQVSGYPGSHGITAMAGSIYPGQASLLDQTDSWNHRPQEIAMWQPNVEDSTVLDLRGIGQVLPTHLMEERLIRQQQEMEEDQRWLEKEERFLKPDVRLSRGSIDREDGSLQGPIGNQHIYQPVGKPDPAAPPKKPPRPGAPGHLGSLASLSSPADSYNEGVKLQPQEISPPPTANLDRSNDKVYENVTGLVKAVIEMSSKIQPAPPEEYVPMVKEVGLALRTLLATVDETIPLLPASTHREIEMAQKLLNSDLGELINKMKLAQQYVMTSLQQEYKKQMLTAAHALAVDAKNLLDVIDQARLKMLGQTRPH
The experiment in a line: Biochemical assay for FAK activity, Assay 1: phosphorylation of peptide substrate with radio-labeled ATP. To be noted: 5 μM ATP, 30 min pre-incubation; for IC50: read-out: Assay 1 FAK TRF PXC50 (converted). As to the method:
GST-tagged (glutathione S-transferase-tagged) FAK was purchased from Invitrogen (PV3832) (www.invitrogen.com). […] To measure inhibitors of FAK, compounds were first prepared as a 10× stock in 10% DMSO. […] A 6-nM GST-FAK solution was prepared in 1.1× reaction buffer containing 44 mM HEPES, pH=7.2, 11 mM MgCl2, 2.2 mM MnCl2, 1.1 mM DTT and 0.011% Tween-20. Then, 20 μL of the 6 nM GST-FAK solution were pre-incubated with the compounds for 30 min at room temperature. […] The reaction was allowed to proceed for 90 min before being quenched with 40 μL of 1% H3PO4. A portion of the reaction mixture (60 μL) was transferred to a phospho-cellulose filter plate (Millipore; www.millipore.com, MAPHNOB50) and incubated for 20 minutes. The plate was filtrated, washed three times using 150 μL of 0.5% H3PO4 and dried at 50° C. for 30 min. After the addition of 60 μL Microscint-20 to the plate, radioactivity was measured using a TopCount (PerkinElmer; www.PerkinElmer.com).

T1 sequence (Q05397 whole entry): as above

Regarding `CONC(=O)c1ccccc1Nc1cc(Nc2cc(C)nn2C(C)C)ncc1Cl` [Example 41, 2-[(5-Chloro-2-{[3-methyl-1-(1-methylethyl)-1H-pyrazol-5-yl]amino}-4-pyridinyl)amino]-N-(methyloxy)benzamide], the results for the IC50 (in assay [1]; on GST-tagged FAK) were 2 nM and 0.398 nM, respectively.

For the molecule `CCn1nccc1Nc1cc(Nc2ccccc2C(=O)NC)c(Cl)cn1` [Example 3, 2-({5-Chloro-2-[(1-ethyl-1H-pyrazol-5-yl)amino]-4-pyridinyl}amino)-N-methylbenzamide], the figures for the IC50 (in assay [1]; on GST-tagged FAK) were 5.01 nM and 0.631 nM, respectively.

For `Cc1cc(Nc2cc(Nc3ccccc3C(=O)NOCCN(C)C)c(Cl)cn2)n(C)n1` [Example 38, 2-({5-Chloro-2-[(1,3-dimethyl-1H-pyrazol-5-yl)amino]-4-pyridinyl}amino)-N-{[2-(dimethylamino)ethyl]oxy}benzamide], the IC50 in assay [1] is 1000 nM; on GST-tagged FAK, 251 nM.

In the case of `CNC(=O)c1ccccc1Nc1cc(Nc2cn(C)nc2C)ncc1Cl` [Example 26, 2-({5-Chloro-2-[(1,3-dimethyl-1H-pyrazol-4-yl)amino]-4-pyridinyl}amino)-N-methylbenzamide], the values for the IC50 (in assay [1]; on GST-tagged FAK) were 3.98 nM and 0.398 nM, respectively.

Turning to `CONC(=O)c1ccccc1Nc1cc(Nc2cc(C)nn2C)ncc1Cl` [Example 36, 2-({5-Chloro-2-[(1,3-dimethyl-1H-pyrazol-5-yl)amino]-4-pyridinyl}amino)-N-(methyloxy)benzamide], the IC50 in assay [1] was 1.58 nM; on GST-tagged FAK, 0.398 nM.

As to `CNC(=O)c1ccccc1Nc1cc(Nc2cc(C(C)(C)C)nn2C)ncc1Cl` [Example 14, 2-[(5-Chloro-2-{[3-(1,1-dimethylethyl)-1-methyl-1H-pyrazol-5-yl)amino]-4-pyridinyl}amino]-N-methylbenzamide], the IC50 in assay [1] was 20 nM; on GST-tagged FAK, 2.51 nM.

Turning to `CNC(=O)c1ccccc1Nc1cc(Nc2cnn(C)c2C)ncc1Cl` [Example 59, 2-({5-Chloro-2-[(1,5-dimethyl-1H-pyrazol-4-yl)amino]-4-pyridinyl}amino)-N-methylbenzamide], the results for the IC50 (in assay [1]; at GST-tagged FAK) were 5.01 nM and 0.631 nM, respectively.

`CCn1nccc1Nc1cc(Nc2ccc(Cl)cc2C(=O)NC)c(Cl)cn1` [Example 12, 5-Chloro-2-({5-chloro-2-[(1-ethyl-1H-pyrazol-5-yl)amino]-4-pyridinyl}amino)-N-methylbenzamide]: the IC50 in assay [1] is 5.01 nM; on GST-tagged FAK it was 2.51 nM.

On to `CCn1nccc1Nc1cc(Nc2ccccc2C(=O)NC)c(C(F)(F)F)cn1` [Example 29, 2-{[2-[(1-Ethyl-1H-pyrazol-5-yl)amino]-5-(trifluoromethyl)-4-pyridinyl]amino}-N-methylbenzamide], for which the IC50 in assay [1] is 2 nM; on GST-tagged FAK, 0.501 nM.

Consider `CCn1nccc1Nc1cc(Nc2ccc(N3CCN(CCO)CC3)cc2C(=O)NC)c(Cl)cn1` [Example 67, 2-({5-Chloro-2-[(1-ethyl-1H-pyrazol-5-yl)amino]-4-pyridinyl}amino)-5-[4-(2-hydroxyethyl)-1-piperazinyl]-N-methylbenzamide], for which the IC50 in assay [1] was 5.01 nM; at GST-tagged FAK it was 63.1 nM.

Take `CNC(=O)c1ccccc1Nc1cc(Nc2cc(C)nn2C(C)C)ncc1C(F)(F)F` [Example 30, N-Methyl-2-{[2-[(3-methyl-1-(1-methylethyl)-1H-pyrazol-5-yl]amino}-5-(trifluoromethyl)-4-pyridinyl]amino}benzamide]: the IC50 was 1.58 nM in assay [1] and 0.398 nM on GST-tagged FAK.

On to `CNC(=O)c1cc(Cl)ccc1Nc1cc(Nc2cc(C)nn2C)ncc1Cl` [Example 11, 5-Chloro-2-({5-chloro-2-[(1,3-dimethyl-1H-pyrazol-5-yl)amino]-4-pyridinyl}amino)-N-methylbenzamide], for which the IC50 in assay [1] was 6.31 nM; on GST-tagged FAK, 2 nM.

With “2-({5-Chloro-2-[(1,3-dimethyl-1H-pyrazol-4-yl)amino]-4-pyridinyl}amino)-N-methylbenzamide [Example 27]”, the “Assay 2 FAK H 31284A TRF PXC50” value in assay [1] is on record as 8.1. For the same molecule, the “Assay 1 FAK TRF PXC50” value on GST-tagged FAK is 8.7.

As to `CCn1nc(C)cc1Nc1cc(Nc2ccccc2C(=O)NOC)c(Cl)cn1` [Example 39, 2-({5-Chloro-2-[(1-ethyl-3-methyl-1H-pyrazol-5-yl)amino]-4-pyridinyl}amino)-N-(methyloxy)benzamide], the IC50 in assay [1] was 5.01 nM; at GST-tagged FAK it was 0.398 nM.

In the case of `CNC(=O)c1ccccc1Nc1cc(Nc2cc(C)nn2CC(F)(F)F)ncc1Cl` [Example 21, 2-[(5-Chloro-2-{[3-methyl-1-(2,2,2-trifluoroethyl)-1H-pyrazol-5-yl]amino}-4-pyridinyl)amino]-N-methylbenzamide], the results for the IC50 (in assay [1]; at GST-tagged FAK) were 63.1 nM and 3.16 nM, respectively.

(Values after patent US20140155410A1 (GlaxoSmithKline LLC, priority 2008, published 2014).)
